According to ChEMBL document CHEMBL1201862, “PubChem BioAssay data set” (2004):
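Results reflect a 48-hour exposure of cells in 96-well plates to compound at five concentrations. The concentration for 50% growth inhibition is given as GI50.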 Activity calls are given as the source filed them. Rule as the data show it: active = GI50 up to about 1.1 µM and inactive = higher.

Assays:
Assay in all cases: inhibition of tumour cell growth, NCI panel, 48 h
A498 = tested on: A498
CAKI-1 = tested on: CAKI-1
SF-539 = tested on: SF-539
K562 = tested on: K562
SF-295 = tested on: SF-295
HOP-62 = tested on: HOP-62
SK-MEL-28 = tested on: SK-MEL-28
UACC-257 = tested on: UACC-257
NCI-H226 = tested on: NCI-H226
A549 = tested on: A549
SNB-75 = tested on: SNB-75
IGROV-1 = tested on: IGROV-1
LOX IMVI = tested on: LOX IMVI
Hs-578T = tested on: Hs-578T
SK-MEL-2 = tested on: SK-MEL-2
SF-268 = tested on: SF-268
MOLT-4 = tested on: MOLT-4
SK-MEL-5 = tested on: SK-MEL-5
MDA-N = tested on: MDA-N
COLO 205 = tested on: COLO 205

Question: For `CC(O)CN1c2ccccc2Sc2ccc(Cl)cc21` (stereo not given), which GI50 (A498) is on record?
Answer: Its GI50 is > 10 µM (inactive).

Question: What about the GI50 (CAKI-1) of the same compound?
Answer: The GI50 was > 10 µM (inactive).

Question: What about the GI50 (SF-539) of the same compound?
Answer: The GI50 was > 10 µM (inactive).

Question: What about the GI50 (K562) of the same compound?
Answer: Its GI50 is > 10 µM (inactive).

Question: And the GI50 (SF-295)?
Answer: Its GI50 is > 10 µM (inactive).

Question: And the GI50 (HOP-62)?
Answer: Its GI50 is > 10 µM (inactive).

Question: What about the GI50 (SK-MEL-28) of the same compound?
Answer: Its GI50 is > 10 µM (inactive).

Question: What about the GI50 (UACC-257) of the same compound?
Answer: Its GI50 is > 10 µM (inactive).

Question: And the GI50 (NCI-H226)?
Answer: Its GI50 is > 10 µM (inactive).

Question: What about the GI50 (A549) of the same compound?
Answer: Its GI50 is > 10 µM (inactive).

Question: What about the GI50 (SNB-75) of the same compound?
Answer: Its GI50 is > 10 µM (inactive).

Question: And the GI50 (IGROV-1)?
Answer: Its GI50 is > 10 µM (inactive).

Question: What about the GI50 (LOX IMVI) of the same compound?
Answer: The GI50 was > 10 µM (inactive).

Question: What about the GI50 (Hs-578T) of the same compound?
Answer: The GI50 was > 10 µM (inactive).

Question: And the GI50 (SK-MEL-2)?
Answer: The GI50 was > 10 µM (inactive).

Question: What about the GI50 (SF-268) of the same compound?
Answer: Its GI50 is > 10 µM (inactive).

Question: What about the GI50 (MOLT-4) of the same compound?
Answer: The GI50 was > 10 µM (inactive).

Question: What about the GI50 (SK-MEL-5) of the same compound?
Answer: The GI50 was > 10 µM (inactive).

Question: What about the GI50 (MDA-N) of the same compound?
Answer: The GI50 was > 10 µM (inactive).

Question: What about the GI50 (COLO 205) of the same compound?
Answer: The GI50 was > 10 µM (inactive).

Question: How did the GI50 (A498) turn out when `C=C1C(=O)O[C@@H]2[C@H]1C[C@H](I)[C@@]1(C)CC[C@H](O1)[C@](C)(I)CCCC(C)[C@@H]2O` (stereo not given in full) was run?
Answer: The GI50 was 14.6 µM (inactive).

Question: What about the GI50 (CAKI-1) of the same compound?
Answer: Its GI50 is 1.96 µM (inactive).

Question: What about the GI50 (SF-539) of the same compound?
Answer: The GI50 was 2.02 µM (inactive).

Question: And the GI50 (K562)?
Answer: The GI50 was 2.37 µM (inactive).

Question: And the GI50 (SF-295)?
Answer: Its GI50 is 16 µM (inactive).

Question: And the GI50 (HOP-62)?
Answer: The GI50 was 19.4 µM (inactive).

Question: What about the GI50 (SK-MEL-28) of the same compound?
Answer: The GI50 was 6.11 µM (inactive).

Question: And the GI50 (UACC-257)?
Answer: The GI50 was 6.1 µM (inactive).

Question: What about the GI50 (NCI-H226) of the same compound?
Answer: Its GI50 is 1.91 µM (inactive).

Question: What about the GI50 (A549) of the same compound?
Answer: The GI50 was 9.79 µM (inactive).

Question: And the GI50 (SNB-75)?
Answer: Its GI50 is 2.33 µM (inactive).

Question: And the GI50 (IGROV-1)?
Answer: The GI50 was 2.01 µM (inactive).

Question: And the GI50 (LOX IMVI)?
Answer: The GI50 was 1.32 µM (inactive).

Question: And the GI50 (Hs-578T)?
Answer: The GI50 was 14.6 µM (inactive).

Question: What about the GI50 (SK-MEL-2) of the same compound?
Answer: Its GI50 is 12.9 µM (inactive).

Question: And the GI50 (SF-268)?
Answer: The GI50 was 12.6 µM (inactive).

Question: And the GI50 (MOLT-4)?
Answer: The GI50 was 1.49 µM (inactive).

Question: And the GI50 (SK-MEL-5)?
Answer: The GI50 was 3.29 µM (inactive).

Question: And the GI50 (MDA-N)?
Answer: Its GI50 is 2.7 µM (inactive).

Question: And the GI50 (COLO 205)?
Answer: The GI50 was 2.21 µM (inactive).

Question: Which results are given for `O=C(CC1(O)C(=O)Nc2c(Cl)cc(Cl)cc21)c1ccc(Br)cc1Br` (stereo not given)?
Answer: GI50 (A498): 22.1 µM (inactive); GI50 (CAKI-1): 4.24 µM (inactive); GI50 (SF-539): 14.6 µM (inactive); GI50 (K562): 0.946 µM (active); GI50 (SF-295): 20 µM (inactive); GI50 (HOP-62): 20.8 µM (inactive); GI50 (SK-MEL-28): 14.3 µM (inactive); GI50 (UACC-257): 10.7 µM (inactive); GI50 (NCI-H226): 19 µM (inactive); GI50 (A549): 22.2 µM (inactive); GI50 (SNB-75): 18.1 µM (inactive); GI50 (IGROV-1): 16.6 µM (inactive); GI50 (LOX IMVI): 5.19 µM (inactive); GI50 (Hs-578T): 0.0646 µM (active); GI50 (SK-MEL-2): 15.2 µM (inactive); GI50 (SF-268): 8.17 µM (inactive); GI50 (MOLT-4): 1.32 µM (inactive); GI50 (SK-MEL-5): 7.4 µM (inactive); GI50 (MDA-N): 7.57 µM (inactive); GI50 (COLO 205): 7.21 µM (inactive)

Question: Which results are given for `C[N+](C)([O-])CCC=C1c2ccccc2CCc2ccccc21`?
Answer: GI50 (A498): 21.5 µM (inactive); GI50 (CAKI-1): 28.8 µM (inactive); GI50 (SF-539): 36.9 µM (inactive); GI50 (K562): 19.2 µM (inactive); GI50 (SF-295): 27.5 µM (inactive); GI50 (HOP-62): 15.6 µM (inactive); GI50 (SK-MEL-28): 33.5 µM (inactive); GI50 (UACC-257): 35.5 µM (inactive); GI50 (NCI-H226): 31.4 µM (inactive); GI50 (A549): 28.1 µM (inactive); GI50 (SNB-75): 29.3 µM (inactive); GI50 (IGROV-1): 17.1 µM (inactive); GI50 (LOX IMVI): 1.14 µM (inactive); GI50 (Hs-578T): 25.6 µM (inactive); GI50 (SK-MEL-2): 18.5 µM (inactive); GI50 (SF-268): 21.5 µM (inactive); GI50 (MOLT-4): 17.2 µM (inactive); GI50 (SK-MEL-5): 17.7 µM (inactive); GI50 (MDA-N): 19.5 µM (inactive); GI50 (COLO 205): 20 µM (inactive)

Question: With `C/C(=N/NC(=S)Nc1ccccc1Cl)c1ccccn1` as the compound, how does the GI50 (A498) read?
Answer: The GI50 was 1.46 µM (inactive).

Question: What about the GI50 (CAKI-1) of the same compound?
Answer: The GI50 was 0.0675 µM (active).

Question: What about the GI50 (SF-539) of the same compound?
Answer: The GI50 was 1.11 µM (active).

Question: And the GI50 (K562)?
Answer: Its GI50 is < 0.01 µM (active).

Question: And the GI50 (SF-295)?
Answer: The GI50 was 0.0986 µM (active).

Question: What about the GI50 (HOP-62) of the same compound?
Answer: The GI50 was < 0.0415 µM (active).

Question: What about the GI50 (SK-MEL-28) of the same compound?
Answer: Its GI50 is 4.06 µM (inactive).

Question: What about the GI50 (UACC-257) of the same compound?
Answer: Its GI50 is < 0.0151 µM (active).

Question: What about the GI50 (NCI-H226) of the same compound?
Answer: The GI50 was < 0.0401 µM (active).

Question: And the GI50 (A549)?
Answer: Its GI50 is 0.0582 µM (active).

Question: And the GI50 (SNB-75)?
Answer: Its GI50 is 8.73 µM (inactive).

Question: What about the GI50 (IGROV-1) of the same compound?
Answer: Its GI50 is < 0.0137 µM (active).

Question: What about the GI50 (LOX IMVI) of the same compound?
Answer: The GI50 was 0.01 µM (active).

Question: What about the GI50 (Hs-578T) of the same compound?
Answer: The GI50 was 8.53 µM (inactive).

Question: And the GI50 (SK-MEL-2)?
Answer: Its GI50 is 1.98 µM (inactive).

Question: And the GI50 (SF-268)?
Answer: Its GI50 is 0.0843 µM (active).

Question: What about the GI50 (MOLT-4) of the same compound?
Answer: Its GI50 is < 0.0109 µM (active).

Question: What about the GI50 (SK-MEL-5) of the same compound?
Answer: The GI50 was 0.0753 µM (active).

Question: And the GI50 (MDA-N)?
Answer: Its GI50 is 0.452 µM (active).

Question: What about the GI50 (COLO 205) of the same compound?
Answer: Its GI50 is < 0.0162 µM (active).
